According to patent US20250163037A1, “SUBSTITUTED ISOXAZOLINE DERIVATIVES” (BASF SE, priority 2022, published 2025):
Where two headings read alike, the source gives them in different places.

How the values were obtained:
Type in all cases: in vivo
[1] = tested on: Boll Weevil (Anthonomus grandis); experiment: B.1 Boll weevil, microtiter plate with insect diet and eggs; settings: 120 h, egg and larval mortality after 5 days, read-out: mortality in comparison with untreated controls
Method: For evaluating control of boll weevil, the test unit consisted of 96-well-microtiter plates containing an insect diet and 5-10 A. grandis eggs.
The compounds were formulated using a solution containing 75% v/v water and 25% v/v DMSO. Different concentrations of formulated compounds were sprayed onto the insect diet at 5 μl, using a custom-built micro atomizer, at two replications.
After application, microtiter plates were incubated at about 25±1° C. and about 75±5% relative humidity for 5 days. Egg and larval mortality were then visually assessed.

[2] = tested on: Yellow Fever Mosquito (Aedes aegypti); experiment: whole plant or invertebrate; settings: 48 h, larval mortality after 2 days, read-out: mortality in comparison with untreated controls
Method: For evaluating control of Yellow Fever Mosquito, the test unit consisted of 96-well-microtiter plates containing 200 μl of tap water per well and 5-15 freshly hatched A. aegypti larvae. The active compounds were formulated using a solution containing 75% (v/v) water and 25% (v/v) DMSO. Different concentrations of formulated compounds or mixtures were sprayed onto the insect diet at 2.5 μl, using a custom-built micro atomizer, at two replications.
After application, microtiter plates were incubated at 28±1° C., 80±5% RH for 2 days. Larval mortality was then visually assessed.

[3] = tested on: Diamond Back Moth (Plutella xylostella); experiment: B.5 Diamond Back Moth, cabbage leaf disc dip; settings: for B.5, 10 ppm: comparative experiment, test B.5 (mortality), unit not given; for mortality at 300 ppm: Plutella xylostella, foliar, 3rd instar larvae, 72 hours after treatment, read-out: mortality in comparison with untreated controls
Method: The active compound was dissolved at the desired concentration in a mixture of 1:1 (vol:vol) distilled water:acetone. Surfactant (Kinetic) was added at a rate of 0.01% (vol/vol). The test solution was prepared at the day of use. Cabbage leaf discs (60 mm in diameter) were dipped in test solution and air-dried. Treated leaves were placed in petri dishes lined with moistened filter paper and inoculated with ten 3rd instar larvae. Mortality was recorded 72 hours after treatment. Feeding damages were also recorded using a scale of 0-100%.

[4] = tested on: Tobacco Budworm (Heliothis virescens); experiment: B.3 Tobacco Budworm, microtiter plate with insect diet and eggs; settings: 120 h, egg and larval mortality after 5 days, read-out: mortality in comparison with untreated controls
Method: For evaluating control of Tobacco Budworm, the test unit consisted of 96-well-microtiter plates containing an insect diet and 15-25 H. virescens eggs. The compounds were formulated using a solution containing 75% v/v water and 25% v/v DMSO. Different concentrations of formulated compounds were sprayed onto the insect diet at 10 μl, using a custom-built micro atomizer, at two replications. After application, microtiter plates were incubated at about 28±1° C. and about 80±5% relative humidity for 5 days. Egg and larval mortality was then visually assessed.

[5] = tested on: Orchid Thrips (Dichromothrips corbetti); experiment: B.6 Orchid Thrips, floral-immersion technique; settings: for B.6, 10 ppm: comparative experiment, test B.6 (percent mortality), unit not given; for mortality at 300 ppm: read-out: mortality in comparison with untreated controls
Method: Dichromothrips corbetti adults used for bioassay were obtained from a colony maintained continuously under laboratory conditions. For testing purposes, the test compound was diluted in a 1:1 mixture of acetone:water (vol:vol), plus Kinetic at a rate of 0.01% v/v.
Thrips potency of each compound was evaluated by using a floral-immersion technique. Each orchid petal was dipped into treatment solution and allowed to dry in Petri dishes. Treated petals were placed into individual re-sealable plastic along with about 20 adult thrips. All test arenas were held under dark condition and a temperature of about 28° C. for duration of the assay. The percent mortality was recorded 72 hours after treatment.

[6] = tested on: Southern Armyworm (Spodoptera eridania); experiment: B.7 Southern Armyworm, 2nd instar larvae, sprayed lima bean plants; settings: 96 h, 4 days after treatment, read-out: mortality in comparison with untreated controls
Method: The active compounds were formulated by a Tecan liquid handler in 100% cyclohexanone as a 10′000 ppm solution supplied in tubes. The 10′000 ppm solution was serially diluted in 100% cyclohexanone to make interim solutions. These served as stock solutions for which final dilutions were made by the Tecan in 50% acetone:50% water (v/v) into 10 or 20 ml glass vials. A nonionic surfactant (Kinetic®) was included in the solution at a volume of 0.01% (v/v). The vials were then inserted into an automated electrostatic sprayer equipped with an atomizing nozzle for application to plants/insects. Lima bean plants (variety Sieva) were grown 2 plants to a pot and selected for treatment at the 1st true leaf stage. Test solutions were sprayed onto the foliage by an automated electrostatic plant sprayer equipped with an atomizing spray nozzle. The plants were dried in the sprayer fume hood and then removed from the sprayer. Each pot was placed into perforated plastic bags with a zip closure. Ten to 11 armyworm larvae were placed into the bag and the bags zipped closed. Test plants were maintained in a growth room at about 25° C. and about 20-40% relative humidity for 4 days, avoiding direct exposure to fluorescent light (14:10 light:dark photo-period) to prevent trapping of heat inside the bags. Mortality and reduced feeding were assessed 4 days after treatment, compared to untreated control plants.

[7] = tested on: Green Peach Aphid (Myzus persicae); experiment: B.2 Green Peach Aphid (mixed life stages), systemic artificial diet under membrane; settings: 72 h, read-out: mortality in comparison with untreated controls
Text: For evaluating control of Green Peach Aphid through systemic means the test unit consisted of 96-well-microtiter plates containing liquid artificial diet under an artificial membrane. The compounds were formulated using a solution containing 75% v/v water and 25% v/v DMSO. Different concentrations of formulated compounds were pipetted into the aphid diet, using a custom-built pipette, at two replications. After application, 5-8 adult aphids were placed on the artificial membrane inside the microtiter plate wells. The aphids were then allowed to suck on the treated aphid diet and incubated at about 23±1° C. and about 50±5% relative humidity for 3 days. Aphid mortality and fecundity was then visually assessed.

[8] = tested on: Silverleaf Whitefly (Bemisia argentifoli); experiment: B.8 Silverleaf Whitefly (adults), sprayed cotton plants; settings: 72 h, 3 days after treatment, read-out: mortality in comparison with untreated controls
Method: The active compounds were formulated by a Tecan liquid handler in 100% cyclohexanone as a 10,000-ppm solution supplied in tubes. The 10,000-ppm solution was serially diluted in 100% cyclohexanone to make interim solutions. These served as stock solutions for which final dilutions were made by the Tecan in 50% acetone:50% water (v/v) into 5 or 10 ml glass vials. A nonionic surfactant (Kinetic®) was included in the solution at a volume of 0.01% (v/v). The vials were then inserted into an automated electrostatic sprayer equipped with an atomizing nozzle for application to plants/insects. Cotton plants at the cotyledon stage (one plant per pot) were sprayed by an automated electrostatic plant sprayer equipped with an atomizing spray nozzle. The plants were dried in the sprayer fume hood and then removed from the sprayer. Each pot was placed into a plastic cup and about 10 to 12 whitefly adults (approximately 3-5 days old) were introduced. The insects were collected using an aspirator and a nontoxic Tygon® tubing connected to a barrier pipette tip. The tip, containing the collected insects, was then gently inserted into the soil containing the treated plant, allowing insects to crawl out of the tip to reach the foliage for feeding. Cups were covered with a reusable screened lid. […] Mortality was assessed 3 days after treatment, compared to untreated control 5 plants.

[9] = 300 ppm, adult thrips, 72 hours after treatment
[10] = 2500 ppm, aphid mortality after 3 days

## N#Cc1ccc(NC2=NOC(c3cc(Cl)cc(Cl)c3)(C(F)(F)F)C2)cc1-n1cncn1 (stereo not drawn) [I-1]
[1]
  mortality at 2500 ppm: ≥ 75%
[2]
  mortality at 2500 ppm: ≥ 75%
[3]
  B.5, 10 ppm: 100
  mortality at 300 ppm: ≥ 75%
[4]
  mortality at 2500 ppm: ≥ 75%
[5]
  B.6, 10 ppm: 100
[5]; [9]
  mortality at 300 ppm: ≥ 75%
[6]
  mortality at 300 ppm: ≥ 75%
[7]; [10]
  mortality at 2500 ppm: ≥ 75%

## N#Cc1ccc(NC2=NOC(c3cc(Cl)c(F)c(Cl)c3)(C(F)(F)F)C2)cc1-n1cncn1 (stereo not drawn) [I-4, 4-[[5-(3,5-dichloro-4-fluoro-phenyl)-5-(trifluoromethyl)-4H-isoxazol-3-yl]amino]-2-(1,2,4-triazol-1-yl)benzonitrile]
[5]; [9]
  mortality at 300 ppm: ≥ 75%

## Fc1c(Cl)cc(C2(C(F)(F)F)CC(Nc3ccc(Cl)c(-n4cc(C(F)(F)F)cn4)c3)=NO2)cc1Cl (stereo not drawn) [I-14, N-[4-chloro-3-[4-(trifluoromethyl)pyrazol-1-yl]phenyl]-5-(3,5-dichloro-4-fluoro-phenyl)-5-(trifluoromethyl)-4H-isoxazol-3-amine]
[8]
  mortality at 300 ppm: ≥ 75%
[5]; [9]
  mortality at 300 ppm: ≥ 75%

## Fc1c(Cl)cc(C2(C(F)(F)F)CC(Nc3ccc(Cl)c(-n4cnc(C(F)(F)F)c4)c3)=NO2)cc1Cl (stereo not drawn) [I-16, N-[4-chloro-3-[4-(trifluoromethyl)imidazol-1-yl]phenyl]-5-(3,5-dichloro4-fluoro-phenyl)-5-(trifluoromethyl)-4H-isoxazol-3-amine]
[5]; [9]
  mortality at 300 ppm: ≥ 75%

## O=C(NCC(F)(F)F)c1cnn(-c2cc(NC3=NOC(c4cc(Cl)c(F)c(Cl)c4)(C(F)(F)F)C3)ccc2Cl)c1 (stereo not drawn) [I-18, 1-[2-chloro-5-[[5-(3,5-dichloro-4-fluoro-phenyl)-5-(trifluoromethyl)-4H-isoxazol-3-yl]amino]phenyl]-N-(2,2,2-trifluoroethyl)pyrazole-4-carboxamide]
[5]; [9]
  mortality at 300 ppm: ≥ 75%

## CCN(C1=NOC(c2cc(Cl)c(F)c(Cl)c2)(C(F)(F)F)C1)c1ccc(C#N)c(-n2cncn2)c1 (stereo not drawn) [I-20, 4-[[5-(3,5-dichloro-4-fluoro-phenyl)-5-(trifluoromethyl)-4H-isoxazol-3-yl]-ethyl-amino]-2-(1,2,4-triazol-1-yl)benzonitrile]
[5]; [9]
  mortality at 300 ppm: ≥ 75%

## COCN(C1=NOC(c2cc(Cl)c(F)c(Cl)c2)(C(F)(F)F)C1)c1ccc(Cl)c(-n2cc(C(F)(F)F)cn2)c1 (stereo not drawn) [I-23, N-[4-chloro-3-[4-(trifluoromethyl)pyrazol-1-yl]phenyl]-5-(3,5-dichloro-4-fluoro-phenyl)-N-(methoxymethyl)-5-(trifluoromethyl)-4H-isoxazol-3-amine]
[3]
  mortality at 300 ppm: ≥ 75%
[5]; [9]
  mortality at 300 ppm: ≥ 75%
[6]
  mortality at 300 ppm: ≥ 75%

## CCOC(=O)N(C1=NOC(c2cc(Cl)c(F)c(Cl)c2)(C(F)(F)F)C1)c1ccc(Cl)c(-n2cnc(C(F)(F)F)c2)c1 (stereo not drawn) [I-26, ethyl N-[4-chloro-3-[4-(trifluoromethyl)imidazol-1-yl]phenyl]-N-[5-(3,5-dichloro-4-fluoro-phenyl)-5-(trifluoromethyl)-4H-isoxazol-3-yl]carbamate]
[5]; Thrips, 72 h
  mortality at 300 ppm: ≥ 75%
[7]
  mortality at 2500 ppm: ≥ 75%

## Fc1c(Cl)cc(C2(C(F)(F)F)CC(Oc3ccc(Cl)c(-n4cncn4)c3)=NO2)cc1Cl (stereo not drawn) [I-27, 3-[4-chloro-3-(1,2,4-triazol-1-yl)phenoxy]-5-(3,5-dichloro-4-fluoro-phenyl)-5-(trifluoromethyl)-4H-isoxazole]
[1]
  mortality at 2500 ppm: ≥ 75%
[2]
  mortality at 2500 ppm: ≥ 75%
[4]
  mortality at 2500 ppm: ≥ 75%
[5]; [9]
  mortality at 300 ppm: ≥ 75%
[6]
  mortality at 300 ppm: ≥ 75%
[7]; [10]
  mortality at 2500 ppm: ≥ 75%

## N#Cc1ccc(C2=NOC(c3cc(Cl)cc(Cl)c3)(C(F)(F)F)C2)cc1-n1cncn1 [WO2011/073444 Table 3937, No. D-539, reference compound]
[3]
  B.5, 10 ppm: 0
[5]
  B.6, 10 ppm: 0

## N#Cc1cnn(-c2cccc(C3=NOC(c4cc(Cl)cc(Cl)c4)(C(F)(F)F)C3)c2)c1 (stereo not drawn) [WO2011/073444 Table C.1, No. I-4, reference compound]
[3]
  B.5, 10 ppm: 0
[5]
  B.6, 10 ppm: 0
